ChEMBL document CHEMBL4130573, “Antitubercular and Cytotoxic Chlorinated seco-Cyclohexenes from Uvaria alba” (J Nat Prod, 2017)
In brackets after ≈: the same amount, converted by molar mass. Activity calls are given as the source filed them. The rule behind the calls is not given here.

Assays:
[1] = test system: HUVEC; test: Antiproliferative activity against HUVEC cells by Cell-titer blue assay; format: functional, cell-based; settings: Homo sapiens
[2] = test system: Mycobacterium tuberculosis; test: Antitubercular activity against Mycobacterium tuberculosis H37Rv by MABA method; format: functional
[3] = test system: K562; test: Antiproliferative activity against human K562 cells by Cell-titer blue assay; format: functional, cell-based
[4] = test system: HeLa; test: Cytotoxic activity against human HeLa cells by Cell-titer blue assay; format: functional, cell-based
[5] = test system: HeLa; test: Cytostatic activity against human HeLa cells at 1 to 50 uM by Cell-titer blue assay; format: functional, cell-based

Structure (SMILES) | IC50 [1] | MIC [2] | IC50 [3] | IC50 [4] | Activity [5]
O=C(OC/C=C\[C@H](Cl)[C@@](O)(CO)COC(=O)c1ccccc1)c1ccccc1 (relative stereo) | > 45 µM | 38 µM (≈ 15.4 µg/mL) | > 45 µM | > 45 µM | 
CC(=O)OC/C(=C\[C@@H](Cl)[C@H](O)COC(=O)c1ccccc1)COC(=O)c1ccccc1 |  | 26 µM (≈ 11.6 µg/mL) |  |  | Active
CC(=O)O[C@@H]1C(=O)C=COC=C1COC(=O)c1ccccc1 | 9.9 µM | 25 µM (≈ 7.56 µg/mL) | 7.9 µM | 25.5 µM | 
